According to patent US6407116B1, “Nitrogenous fused-ring compounds, process for the preparation of the same, and drugs” (Takeda Chemical Industries, Inc., priority 1997, dated 2002):
Counter-ions that a name gives are not always drawn.

Assays:
[1] = test system: histamine-induced dermal vascular hyperpermeability; test: Effect on histamine-induced dermal vascular hyperpermeability in guinea pigs; format: in vivo, guinea pig; conditions: 3 mg/kg oral administration, 1 hour before intradermal histamine, male Hartley guinea pigs; for inhibition in vivo at 3 mg/kg: Cavia porcellus
Experimental: Effect on Histamine-induced Dermal Vascular Hyperpermeability in Guinea Pigs
Male Hartley guinea pigs (weighing about 500 g) were used. […] After 30 minutes, the animal was hit on its head to make it unconscious, and cut at its neck to sacrifice by exsanguination. The dorsal skin was peeled and examined for the long and short diameters (mm) of each blue spot which were then multiplied to give a product, which was averaged to give a vascular permeability index. Each substance was suspended in 5% gum arabic solution, and given orally in the volume of 0.2 ml/100 g body weight 1 hour before histamine administration. Control animals received the same volume of 5% gum arabic solution. A % inhibition of this reaction was calculated according to [Equation 1].
% Inhibition of histamine-induced dermal vascular hyperpermeability=100×(1-vascular permeability index in treatment group/vascular permeability index in control group) [Equation 1]

guinea-pig eosinophils = test: Chemotaxis inhibition assay: LTB4-induced chemotaxis in guinea-pig eosinophils; format: cell-based; conditions: test substance 1×10^−5 M, LTB4 10^−8 M, 2 hours; for inhibition at 10 µM: Cavia porcellus, Eosinophil
Experimental: 1) Guinea-pig Eosinophil Preparation
Male Hartley guinea-pigs received 2 ml of equine serum (Bio-Whittaker, Inc) intraperitoneally once a week for successive 8 weeks. 48 hours after the last administration, 75 ml of physiological saline was injected into the peritoneal cavity, and the fluid was recovered and centrifuged at 400 G for 5 minutes. […] Erythrocytes in the isolated cell pellet, if any, were removed by hypotonic treatment (suspended in water for 30 seconds).
2) Chemotaxis Inhibition Assay
600 μl of LTB4 suspended in Hanks-Hepes-HSA (final concentration of 10^−8 M, Cascade Biochemical Ltd.) was placed in the lower compartment of a 24-well plate and kept at 37° C. for 30 minutes in a CO2 gas incubator. After mounting a Chemotaxicell (polycarbonate membrane, pore size 3 μm, thickness 10 μm), which served as an upper compartment, on the 24-well plate described above, 200 μl of eosinophil suspension (5×10^6 cells/ml), which had been incubated at 37° C. for 15 minutes in a thermostat chamber, was added to the upper compartment. After allowing to react for 2 hours in the CO2 gas incubator, the Chemotaxicell was removed, and 60 μl of 2% (w/v) EDTA solution in physiological saline was added to the lower compartment. After cooling on ice, the cells which underwent the chemotaxis into the lower compartment were counted using a blood cell counter (Coulter Counter (trade name)). In the procedure described above, the test substance was dissolved in N,N-dimethylformamide (DMF) and added to the upper and lower compartments at the final concentration of 10^−5 M.
% Chemotaxis inhibition=[…] [Equation 2]
The results are shown in [Table 2].

Row | SMILES | inhibition in vivo at 3 mg/kg [1] | melting point | Inhibition of histamine-induced dermal vascular hyperpermeability (%) [1] | Inhibition (%) of LTB4-induced chemotaxis (guinea-pig eosinophils) | inhibition at 10 µM (guinea-pig eosinophils)
1 | O=C(O)CCn1c(=O)c2ccccc2n(CCCCN2CCC(OC(c3ccccc3)c3ccccc3)CC2)c1=O [Example 52, 2,4-Dioxo-1-[4-(4-diphenylmethoxypiperidino)butyl]-1,2,3,4-tetrahydroquinazoline-3-propionic acid] | 88% | 107 to 108 °C |  |  | 
2 | COC(=O)C(C)(C)n1c(=O)c2ccccc2n(CCCCN2CCC(OC(c3ccccc3)c3ccccc3)CC2)c1=O.Cl [Example 30] |  |  | 88% | 77% | 
3 | CCOC(=O)C(C)(C)n1c(=O)c2ccccc2n(CCCCN2CCC(OC(c3ccccc3)c3ccccc3)CC2)c1=O.Cl [Example 27] |  |  | 94% | 52% | 
4 | Nc1ccc2c(c1)c(=O)[nH]c(=O)n2CCCCN1CCC(OC(c2ccccc2)c2ccccc2)CC1 [Example 40, 6-Amino-2,4-dioxo-1-[4-(4-diphenylmethoxypiperidino)butyl]-1,2,3,4-tetrahydroquinazoline] | 90% | 131 to 133 °C |  |  | 
5 | O=C(O)CCCCn1c(=O)c2ccccc2n(CCCCN2CCC(OC(c3ccccc3)c3ccccc3)CC2)c1=O [Example 60, 2,4-Dioxo-1-[4-(4-diphenylmethoxypiperidino)butyl]-1,2,3,4-tetrahydroquinazoline-3-valeric acid] | 93% |  |  |  | 65%
6 | N#CCCCCn1c(=O)c2ccccc2n(CCCCN2CCC(OC(c3ccccc3)c3ccccc3)CC2)c1=O [Example 93, 2,4-Dioxo-1-[4-(4-diphenylmethoxypiperidino)butyl]-1,2,3,4-tetrahydroquinazoline-3-valeronitrile] | 84% |  |  |  | 62%
7 | CCOC(=O)C(C)(C)n1c(=O)c2cc(F)ccc2n(CCCCN2CCC(OC(c3ccccc3)c3ccccc3)CC2)c1=O [Example 33, Ethyl 2-[1-[4-(4-diphenylmethoxypiperidino)butyl]-2,4-dioxo-6-fluoro-1,2,3,4-tetrahydroquinazolin-3-yl]isobutyrate hydrochloride] | 88% |  |  |  | 54%
8 | CCOC(=O)CCCCCn1c(=O)c2ccccc2n(CCCCN2CCC(OC(c3ccccc3)c3ccccc3)CC2)c1=O.Cl [Example 95, Ethyl 2,4-dioxo-1-[4-(4-diphenylmethoxypiperidino)butyl]-1,2,3,4-tetrahydroquinazoline-3-hexanoate hydrochloride] | 85% | 149 to 151 °C |  |  | 
9 | O=c1[nH]c(=O)n(CCCCN2CCC(OC(c3ccccc3)c3ccccc3)CC2)c2ccccc12 [Example 2, 2,4-Dioxo-1-[4-(4-diphenylmethoxy-1-piperidinyl)butyl]-1,2,3,4-tetrahydroquinazoline] | 88% | 131 to 133 °C |  |  | 91%
10 | O=c1[nH]c(=O)n(CCCCN2CCC(OC(c3ccccc3)c3ccccc3)CC2)c2ccc([N+](=O)[O-])cc12 [Example 12, 2,4-Dioxo-1-[4-(4-diphenylmethoxypiperidino)butyl]-6-nitro-1,2,3,4-tetrahydroquinazoline] | 80% | 211 to 213 °C |  |  | 66%
11 | CCOC(=O)CCn1c(=O)c2ccccc2n(CCCCN2CCC(OC(c3ccccc3)c3ccccc3)CC2)c1=O [Example 17, Ethyl 2,4-dioxo-1-[4-(4-diphenylmethoxypiperidino)butyl]-1,2,3,4-tetrahydroquinazoline-3-propionate hydrochloride] | 91% |  |  |  | 
12 | CC(C)(C(=O)O)n1c(=O)c2ccccc2n(CCCCN2CCC(OC(c3ccccc3)c3ccccc3)CC2)c1=O [Example 120, 2-[2,4-Dioxo-1-[4-(4-diphenylmethoxypiperidino)butyl]-1,2,3,4-tetrahydroquinazolin-3-yl]isobutyric acid hydrochloride] | 86% |  |  |  | 
